Results from patent publication US9422285B2, “Substituted pyrazolo[1,5-A]-pyridine-3-carboxamides and use thereof” (Bayer Pharma Aktiengesellschaft, priority 2014, dated 2016).
Counter-ions that a name gives are not always drawn.

Biological target: T1, recombinant guanylate cyclase reporter cell line (Rattus norvegicus, UniProt P19686+P20595)
T1 construct: expressed in transfected cells
T1 sequence (P19686 1-690): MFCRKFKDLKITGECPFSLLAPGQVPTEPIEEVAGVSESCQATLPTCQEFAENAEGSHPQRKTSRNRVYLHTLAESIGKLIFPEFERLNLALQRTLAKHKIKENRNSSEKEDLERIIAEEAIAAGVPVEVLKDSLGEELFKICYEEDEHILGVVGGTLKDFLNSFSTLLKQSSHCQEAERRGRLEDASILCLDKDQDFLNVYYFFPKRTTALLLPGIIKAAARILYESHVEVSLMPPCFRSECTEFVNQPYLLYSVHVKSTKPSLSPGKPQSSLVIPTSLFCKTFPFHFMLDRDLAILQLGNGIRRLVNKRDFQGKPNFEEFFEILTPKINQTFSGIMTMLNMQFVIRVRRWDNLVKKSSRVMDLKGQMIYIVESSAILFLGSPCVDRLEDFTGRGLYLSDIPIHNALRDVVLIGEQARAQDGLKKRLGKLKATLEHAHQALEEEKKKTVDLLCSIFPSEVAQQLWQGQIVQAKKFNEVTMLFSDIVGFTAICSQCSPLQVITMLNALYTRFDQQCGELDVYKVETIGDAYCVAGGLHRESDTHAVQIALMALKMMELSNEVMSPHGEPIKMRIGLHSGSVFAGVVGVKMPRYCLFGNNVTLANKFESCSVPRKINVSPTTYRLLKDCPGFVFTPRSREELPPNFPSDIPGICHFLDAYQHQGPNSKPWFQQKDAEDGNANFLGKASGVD
T1 sequence (P20595 1-619): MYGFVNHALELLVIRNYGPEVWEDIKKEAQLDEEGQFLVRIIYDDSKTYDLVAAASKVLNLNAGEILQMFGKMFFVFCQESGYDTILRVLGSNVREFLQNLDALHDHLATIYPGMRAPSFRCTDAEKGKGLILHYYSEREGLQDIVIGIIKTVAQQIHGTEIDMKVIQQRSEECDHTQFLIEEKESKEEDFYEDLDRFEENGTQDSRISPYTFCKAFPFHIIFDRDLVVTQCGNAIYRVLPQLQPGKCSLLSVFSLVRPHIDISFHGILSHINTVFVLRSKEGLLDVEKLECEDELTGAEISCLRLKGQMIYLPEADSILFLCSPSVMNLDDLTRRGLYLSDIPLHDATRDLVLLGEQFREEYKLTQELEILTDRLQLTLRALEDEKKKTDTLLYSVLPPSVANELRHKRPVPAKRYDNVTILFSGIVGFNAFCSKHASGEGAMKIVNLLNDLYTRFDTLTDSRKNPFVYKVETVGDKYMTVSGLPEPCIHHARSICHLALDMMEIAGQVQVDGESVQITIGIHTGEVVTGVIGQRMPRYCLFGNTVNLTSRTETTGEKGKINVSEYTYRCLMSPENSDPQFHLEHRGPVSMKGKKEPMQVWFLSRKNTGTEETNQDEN
Assay: Effect on a recombinant guanylate cyclase reporter cell line (B-2)
Assay type: cell-based
Details: in some cases mean values for individual determinations
Experimental: B-2. Effect on a Recombinant Guanylate Cyclase Reporter Cell Line
The cellular effect of the inventive compounds is determined using a recombinant guanylate cyclase reporter cell line, as described in F. Wunder et al., Anal. Biochem. 339, 104-112 (2005).
Representative MEC values (MEC=minimum effective concentration) for the inventive compounds are shown in the table below (in some cases as mean values for individual determinations): […]

SMILES | MEC (minimum effective concentration) [µM]
Cc1cc(OCc2c(F)cccc2F)n2nc(C)c(C(=O)NCC(=O)NC3CC3)c2c1 [Example 89, N-[2-(Cyclopropylamino)-2-oxoethyl]-7-[(2,6-difluorobenzyl)oxy]-2,5-dimethylpyrazolo[1,5-a]pyridine-3-carboxamide] | 3.0
Cc1cc(OCc2c(F)cccc2F)n2nc(C)c(C(=O)NC3CCNC(C(F)(F)F)C3)c2c1 (stereo not shown) [Example 154, 7-[(2,6-Difluorobenzyl)oxy]-2,5-dimethyl-N-[2-(trifluoromethyl)piperidin-4-yl]pyrazolo[1,5-a]pyridine-3-carboxamide] | 1.0
Cc1cc(OCc2c(F)ccc(F)c2F)n2nc(C)c(C(=O)NC3CC4CCCC(C3)N4C)c2c1 (stereo not shown) [Example 29, 2,5-Dimethyl-N-(9-methyl-9-azabicyclo[3.3.1]non-3-yl)-7-[(2,3,6-trifluorobenzyl)oxy]pyrazolo[1,5-a]pyridine-3-carboxamide] | 0.3
Cc1cc(OCc2c(F)cccc2F)n2nc(C)c(C(=O)Nc3ccnc4ccc(F)cc34)c2c1 [Example 80, 7-[(2,6-Difluorobenzyl)oxy]-N-(6-fluoroquinolin-4-yl)-2,5-dimethylpyrazolo[1,5-a]pyridine-3-carboxamide trifluoroacetate] | 0.03
Cc1cc(OCc2c(F)cccc2F)n2nc(C)c(C(=O)NC3CCCc4cc(F)ccc43)c2c1 (racemic) [Example 150, rac-7-[(2,6-Difluorobenzyl)oxy]-N-(6-fluoro-1,2,3,4-tetrahydronaphthalen-1-yl)-2,5-dimethylpyrazolo[1,5-a]pyridine-3-carboxamide] | 0.3
Cc1cc(OCc2c(F)ccc(F)c2F)n2nc(C)c(C(=O)Nc3cnn4ccccc34)c2c1 [Example 23, 2,5-Dimethyl-N-(pyrazolo[1,5-a]pyridin-3-yl)-7-[(2,3,6-trifluorobenzyl)oxy]pyrazolo[1,5-a]pyridine-3-carboxamide] | 0.3
Cc1cc(OCc2c(F)cccc2F)n2nc(C)c(C(=O)NC3CC(=O)Nc4ccccc43)c2c1 (racemic) [Example 76, rac-7-[(2,6-Difluorobenzyl)oxy]-2,5-dimethyl-N-(2-oxo-1,2,3,4-tetrahydroquinolin-4-yl)pyrazolo[1,5-a]pyridine-3-carboxamide trifluoroacetate] | 0.3
Cc1cc(OCc2c(F)ccc(F)c2F)n2nc(C)c(C(=O)Nc3c(C)nn(Cc4ccc(F)cc4)c3C)c2c1 [Example 16, N-[1-(4-Fluorobenzyl)-3,5-dimethyl-1H-pyrazol-4-yl]-2,5-dimethyl-7-[(2,3,6-trifluorobenzyl)oxy]pyrazolo[1,5-a]pyridine-3-carboxamide] | 0.3
Cc1cc(OCc2c(F)cccc2F)n2nc(C)c(C(=O)NCC(C)(N)COc3ccc(F)c(F)c3)c2c1 (racemic) [Example 79, rac-N-[2-Amino-3-(3,4-difluorophenoxy)-2-methylpropyl]-7-[(2,6-difluorobenzyl)oxy]-2,5-dimethylpyrazolo[1,5-a]pyridine-3-carboxamide] | 3.0
Cc1cc(OCc2c(F)cccc2F)n2nc(C3CC3)c(C(=O)NCC(C)(N)CCC(F)(F)F)c2c1 (single isomer, unassigned) [Example 58, ent-N-(2-Amino-5,5,5-trifluoro-2-methylpentyl)-2-cyclopropyl-7-[(2,6-difluorobenzyl)oxy]-5-methylpyrazolo[1,5-a]pyridine-3-carboxamide] | 0.03
Cc1cc(OCc2c(F)cccc2F)n2nc(C)c(C(=O)NC3CCCc4c(N)cccc43)c2c1 (racemic) [Example 139, rac-N-(5-Amino-1,2,3,4-tetrahydronaphthalen-1-y1)-74(2,6-difluorobenzyl)oxy]-2,5-dimethylpyrazolo[1,5-a]pyridine-3-carboxamide] | 1.0
COCC(C)(N)CNC(=O)c1c(C)nn2c(OCc3c(F)cccc3F)cc(C)cc12 (racemic) [Example 97, rac-N-(2-Amino-3-methoxy-2-methylpropyl)-7-[(2,6-difluorobenzyl)oxy]-2,5-dimethylpyrazolo[1,5-a]pyridine-3-carboxamide] | 1.0
Cc1cc(OCc2c(F)cccc2F)n2nc(C)c(C(=O)NCC(N)c3ccc4ncccc4c3)c2c1 (racemic) [Example 103, rac-N-[2-Amino-2-(quinolin-6-yl)ethyl]-7-[(2,6-difluorobenzyl)oxy]-2,5-dimethylpyrazolo[1,5-a]pyridine-3-carboxamide] | 10
Cc1cc(OCc2c(F)cccc2F)n2nc(C)c(C(=O)NCC(C)(N)CC(F)F)c2c1 (single isomer, unassigned) [Example 46, ent-N-(2-Amino-4,4-difluoro-2-methylbutyl)-7-[(2,6-difluorobenzyl)oxy]-2,5-dimethylpyrazolo[1,5-a]pyridine-3-carboxamide] | 2.0
Cc1cc(OCc2c(F)cccc2F)n2nc(C)c(C(=O)NNC(=O)CN3CCCC3=O)c2c1 [Example 175, 7-[(2,6-Difluorobenzyl)oxy]-2,5-dimethyl-N′-[(2-oxopyrrolidin-1-yl)acetyl]pyrazolo[1,5-a]pyridine-3-carbohydrazide trifluoroacetate] | 10
CCC(C)(N)CNC(=O)c1c(C)nn2c(OCc3c(F)cccc3F)cc(C)cc12 (single isomer, unassigned) [Example 2, ent-N-(2-Amino-2-methylbutyl)-7-[(2,6-difluorobenzyl)oxy]-2,5-dimethylpyrazolo[1,5-a]pyridine-3-carboxamide formate] | 0.3
CCOC(=O)NCCNC(=O)c1c(C)nn2c(OCc3c(F)cccc3F)cc(C)cc12 [Example 106, Ethyl {2-[({7-[(2,6-difluorobenzyl)oxy]-2,5-dimethylpyrazolo[1,5-a]pyridin-3-yl}carbonyl)amino]ethyl}carbamate] | 1.0
Cc1cc(OCc2c(F)cccc2F)n2nc(C)c(C(=O)NC3(c4ccc(F)c(F)c4)CC3)c2c1 [Example 90, 7-[(2,6-Difluorobenzyl)oxy]-N[1-(3,4-difluorophenyl)cyclopropyl]-2,5-dimethylpyrazolo[1,5-a]pyridine-3-carboxamide] | 0.1
Cc1cc(OCc2c(F)cccc2F)n2nc(C)c(C(=O)NNC(=O)CN(C)C)c2c1 [Example 67, 7-[(2,6-Difluorobenzyl)oxy]-N′-[(dimethylamino)acetyl]-2,5-dimethylpyrazolo[1,5-a]pyridine-3-carbohydrazide] | 3.0
C=CCONC(=O)c1c(C)nn2c(OCc3c(F)cccc3F)cc(C)cc12 [Example 65, N-(Allyloxy)-7-[(2,6-difluorobenzyl)oxy]-2,5-dimethylpyrazolo[1,5-a]pyridine-3-carboxamide trifluoroacetate] | 3.0
Cc1cc(OCc2c(F)ccc(F)c2F)n2nc(C)c(C(=O)Nc3cnn(CCO)c3)c2c1 [Example 33, N-[1-(2-Hydroxyethyl)-1H-pyrazol-4-yl] -2,5-dimethyl-7-[(2,3,6-trifluorobenzyl)oxy]pyrazolo[1,5-a]pyridine-3-carboxamide] | 3.0
Cc1cc(OCc2c(F)ccc(F)c2F)n2nc(C)c(C(=O)NC3CC(C)(C)NC(C)(C)C3)c2c1 [Example 9, 2,5-Dimethyl-N-(2,2,6,6-tetramethylpiperidin-4-yl)-7-[(2,3,6-trifluorobenzyl)oxy]pyrazolo[1,5-a]pyridine-3-carboxamide] | 1.0
